In one assay the test system is A. calcoaceticus. Kind of assay: Overcoming inherent resistance, MIC alone and in combination (agarose dilution). The class given is cell-based. Particulars: A. calcoaceticus AC001.
Another assay deals with P. aeruginosa. The class given is cell-based.

The values below come from US6503881B2 (priority 1996, dated 2003).

Read-outs that look alike come from different tables or passages of the source.

Consider W R I W K P K W R L P K W [MBI 11D18CN], for which the MIC was 32 µg/mL with bacteria (A. calcoaceticus AC003); 64 µg/mL against bacteria (E. cloacae ECL009); 16 µg/mL with bacteria (E. coli ATCC 25922, agarose dilution assay); 4 µg/mL against bacteria (E. coli ECO002); 2 µg/mL against bacteria (E. coli ESS, agarose dilution assay); 2 µg/mL with bacteria (E. coli NCTC 10418, agarose dilution assay). The MIC in the assay with bacteria (E. faecalis EFS002) is 32 µg/mL; with bacteria (E. faecium ATCC 29212, agarose dilution assay), 8 µg/mL; with bacteria (E. faecium EFM003), 2 µg/mL; against bacteria (H. influenzae HIN002) it was over 128 µg/mL; in the assay with bacteria (K. pneumoniae KP002), 64 µg/mL; in the assay with bacteria (P. aeruginosa ATCC 27853, agarose dilution assay) it was 128 µg/mL. The MIC in the assay with bacteria (P. aeruginosa NCTC 10662, agarose dilution assay) was 128 µg/mL; in the assay on bacteria (P. aeruginosa PA006), over 128 µg/mL; with bacteria (P. mirabilis PM003), over 128 µg/mL; in the assay on bacteria (P. vulgaris ATCC 13315, agarose dilution assay), 32 µg/mL; against bacteria (P. vulgaris SBPV1) it was 32 µg/mL; in the assay on bacteria (S. aureus ATCC 29213, agarose dilution assay), 0.5 µg/mL. The MIC against bacteria (S. aureus MRSA9, agarose dilution assay) was 2 µg/mL; with bacteria (S. aureus MRSA13, agarose dilution assay), 8 µg/mL; against bacteria (S. aureus MRSA17, agarose dilution assay), 2 µg/mL; in the assay with bacteria (S. aureus SA010) it was 4 µg/mL; with bacteria (S. aureus SA206, agarose dilution assay), 4 µg/mL; in the assay with bacteria (S. epidermidis SE010), 2 µg/mL. For the same substance, the MIC against bacteria (S. maltophilia SMA003) was 16 µg/mL; in the assay with bacteria (S. marcescens SBSM2), over 128 µg/mL; against bacteria (S. marcescens SM76, agarose dilution assay) it was over 128 µg/mL; with bacteria (S. marcescens SM82, agarose dilution assay), over 128 µg/mL; with bacteria (S. pneumoniae 406LE8, agarose dilution assay), 64 µg/mL; against bacteria (S. pneumoniae 60120, agarose dilution assay), 128 µg/mL. Further, the MIC against bacteria (S. pneumoniae ATCC 49619, agarose dilution assay) was 64 µg/mL; against bacteria (S. pneumoniae SBSPN3) it was 64 µg/mL; against bacteria (S. pyogenes SPY003), 32 µg/mL.

As to “KWKSFIKKLTSAAKKVVTTAKPLISS [MBI 26]”, the “MIC Alone” value was 16 µg/mL with A. calcoaceticus (agent alone) and 64 µg/mL with P. aeruginosa (P. aeruginosa PA041, agent alone). Also, the “MBI 26 MIC, +Erythro.” value in the assay on A. calcoaceticus (in combination with erythromycin) was 8 µg/mL; in the assay with P. aeruginosa (P. aeruginosa PA041, in combination with erythromycin) it was 32 µg/mL. In addition, the MIC in combination in the assay with P. aeruginosa (P. aeruginosa PA024, pair Ceftriaxone / MBI 26) stood at 32 µg/mL.
